BigSolDB 2.1

Compound `O=C(c1ccccc1)c1ccc(Cl)cc1` has a solubility (mole fraction) (in acetone, 278.15 K) of 0.0863, a solubility (mole fraction) (in acetone, 283.15 K) of 0.0934 and a solubility (mole fraction) (in acetone, 288.15 K) of 0.116. The solubility (mole fraction) (in acetone, 293.15 K) was 0.146, the solubility (mole fraction) (in acetone, 298.15 K) was 0.181 and the solubility (mole fraction) (in acetone, 303.15 K) was 0.224. It also gave a solubility (mole fraction) (in acetone, 308.15 K) of 0.277, a solubility (mole fraction) (in acetone, 313.15 K) of 0.342 and a solubility (mole fraction) (in acetone, 318.15 K) of 0.454. For the same compound, the solubility (mole fraction) (in acetone, 323.15 K) was 0.615, the solubility (mole fraction) (in acetonitrile, 278.15 K) was 0.0216 and the solubility (mole fraction) (in acetonitrile, 283.15 K) was 0.0258. It also gave a solubility (mole fraction) (in acetonitrile, 288.15 K) of 0.0352, a solubility (mole fraction) (in acetonitrile, 293.15 K) of 0.0438 and a solubility (mole fraction) (in acetonitrile, 298.15 K) of 0.0625. The solubility (mole fraction) (in acetonitrile, 303.15 K) was 0.0858, the solubility (mole fraction) (in acetonitrile, 308.15 K) was 0.131 and the solubility (mole fraction) (in acetonitrile, 313.15 K) was 0.19. For the same compound, the solubility (mole fraction) (in acetonitrile, 318.15 K) was 0.307, the solubility (mole fraction) (in acetonitrile, 323.15 K) was 0.616 and the solubility (mole fraction) (in ethanol, 278.15 K) was 0.00817. The solubility (mole fraction) (in ethanol, 283.15 K) was 0.0103, the solubility (mole fraction) (in ethanol, 288.15 K) was 0.0124 and the solubility (mole fraction) (in ethanol, 293.15 K) was 0.0151. For the same compound, the solubility (mole fraction) (in ethanol, 298.15 K) was 0.0195, the solubility (mole fraction) (in ethanol, 303.15 K) was 0.0239 and the solubility (mole fraction) (in ethanol, 308.15 K) was 0.0318. The solubility (mole fraction) (in ethanol, 313.15 K) was 0.043, the solubility (mole fraction) (in ethanol, 318.15 K) was 0.06 and the solubility (mole fraction) (in ethanol, 323.15 K) was 0.0856. For the same compound, the solubility (mole fraction) (in ethyl acetate, 278.15 K) was 0.114, the solubility (mole fraction) (in ethyl acetate, 283.15 K) was 0.118 and the solubility (mole fraction) (in ethyl acetate, 288.15 K) was 0.138. The solubility (mole fraction) (in ethyl acetate, 293.15 K) was 0.167, the solubility (mole fraction) (in ethyl acetate, 298.15 K) was 0.203 and the solubility (mole fraction) (in ethyl acetate, 303.15 K) was 0.24. The solubility (mole fraction) (in ethyl acetate, 308.15 K) was 0.294, the solubility (mole fraction) (in ethyl acetate, 313.15 K) was 0.351 and the solubility (mole fraction) (in ethyl acetate, 318.15 K) was 0.43. For the same compound, the solubility (mole fraction) (in ethyl acetate, 323.15 K) was 0.534, the solubility (mole fraction) (in isobutanol, 278.15 K) was 0.0102 and the solubility (mole fraction) (in isobutanol, 283.15 K) was 0.0113. The solubility (mole fraction) (in isobutanol, 288.15 K) was 0.0138, the solubility (mole fraction) (in isobutanol, 293.15 K) was 0.0173 and the solubility (mole fraction) (in isobutanol, 298.15 K) was 0.0225. The solubility (mole fraction) (in isobutanol, 303.15 K) was 0.0305, the solubility (mole fraction) (in isobutanol, 308.15 K) was 0.0408 and the solubility (mole fraction) (in isobutanol, 313.15 K) was 0.0549. For the same compound, the solubility (mole fraction) (in isobutanol, 318.15 K) was 0.0821, the solubility (mole fraction) (in isobutanol, 323.15 K) was 0.123 and the solubility (mole fraction) (in isopropanol, 278.15 K) was 0.00704. For the same compound, the solubility (mole fraction) (in isopropanol, 283.15 K) was 0.00886, the solubility (mole fraction) (in isopropanol, 288.15 K) was 0.0118 and the solubility (mole fraction) (in isopropanol, 293.15 K) was 0.0153. For the same compound, the solubility (mole fraction) (in isopropanol, 298.15 K) was 0.0187, the solubility (mole fraction) (in isopropanol, 303.15 K) was 0.0223 and the solubility (mole fraction) (in isopropanol, 308.15 K) was 0.0288. For the same compound, the solubility (mole fraction) (in isopropanol, 313.15 K) was 0.0398, the solubility (mole fraction) (in isopropanol, 318.15 K) was 0.0617 and the solubility (mole fraction) (in isopropanol, 323.15 K) was 0.0896. It also gave a solubility (mole fraction) (in methanol, 278.15 K) of 0.00549, a solubility (mole fraction) (in methanol, 283.15 K) of 0.00622 and a solubility (mole fraction) (in methanol, 288.15 K) of 0.00802. The solubility (mole fraction) (in methanol, 293.15 K) was 0.00943, the solubility (mole fraction) (in methanol, 298.15 K) was 0.012 and the solubility (mole fraction) (in methanol, 303.15 K) was 0.0149. The solubility (mole fraction) (in methanol, 308.15 K) was 0.0203, the solubility (mole fraction) (in methanol, 313.15 K) was 0.027 and the solubility (mole fraction) (in methanol, 318.15 K) was 0.0384. The solubility (mole fraction) (in methanol, 323.15 K) was 0.0594, the solubility (mole fraction) (in methyl acetate, 278.15 K) was 0.0971 and the solubility (mole fraction) (in methyl acetate, 283.15 K) was 0.109. It also gave a solubility (mole fraction) (in methyl acetate, 288.15 K) of 0.134, a solubility (mole fraction) (in methyl acetate, 293.15 K) of 0.164 and a solubility (mole fraction) (in methyl acetate, 298.15 K) of 0.196. For the same compound, the solubility (mole fraction) (in methyl acetate, 303.15 K) was 0.239, the solubility (mole fraction) (in methyl acetate, 308.15 K) was 0.289 and the solubility (mole fraction) (in methyl acetate, 313.15 K) was 0.354. It also gave a solubility (mole fraction) (in methyl acetate, 318.15 K) of 0.417, a solubility (mole fraction) (in methyl acetate, 323.15 K) of 0.494 and a solubility (mole fraction) (in n-butanol, 278.15 K) of 0.0271. The solubility (mole fraction) (in n-butanol, 283.15 K) was 0.0304, the solubility (mole fraction) (in n-butanol, 288.15 K) was 0.0347 and the solubility (mole fraction) (in n-butanol, 293.15 K) was 0.0394. For the same compound, the solubility (mole fraction) (in n-butanol, 298.15 K) was 0.0436, the solubility (mole fraction) (in n-butanol, 303.15 K) was 0.0478 and the solubility (mole fraction) (in n-butanol, 308.15 K) was 0.0531. The solubility (mole fraction) (in n-butanol, 313.15 K) was 0.0677, the solubility (mole fraction) (in n-butanol, 318.15 K) was 0.0993 and the solubility (mole fraction) (in n-butanol, 323.15 K) was 0.211. The solubility (mole fraction) (in n-butyl acetate, 278.15 K) was 0.133, the solubility (mole fraction) (in n-butyl acetate, 283.15 K) was 0.142 and the solubility (mole fraction) (in n-butyl acetate, 288.15 K) was 0.156. For the same compound, the solubility (mole fraction) (in n-butyl acetate, 293.15 K) was 0.182, the solubility (mole fraction) (in n-butyl acetate, 298.15 K) was 0.212 and the solubility (mole fraction) (in n-butyl acetate, 303.15 K) was 0.248. It also gave a solubility (mole fraction) (in n-butyl acetate, 308.15 K) of 0.285, a solubility (mole fraction) (in n-butyl acetate, 313.15 K) of 0.329 and a solubility (mole fraction) (in n-butyl acetate, 318.15 K) of 0.383. The solubility (mole fraction) (in n-butyl acetate, 323.15 K) was 0.454, the solubility (mole fraction) (in n-propanol, 278.15 K) was 0.0111 and the solubility (mole fraction) (in n-propanol, 283.15 K) was 0.0128. For the same compound, the solubility (mole fraction) (in n-propanol, 288.15 K) was 0.0163, the solubility (mole fraction) (in n-propanol, 293.15 K) was 0.0205 and the solubility (mole fraction) (in n-propanol, 298.15 K) was 0.0247. It also gave a solubility (mole fraction) (in n-propanol, 303.15 K) of 0.0325, a solubility (mole fraction) (in n-propanol, 308.15 K) of 0.0424 and a solubility (mole fraction) (in n-propanol, 313.15 K) of 0.0571. For the same compound, the solubility (mole fraction) (in n-propanol, 318.15 K) was 0.0829 and the solubility (mole fraction) (in n-propanol, 323.15 K) was 0.135.
